The values below come from ChEMBL document CHEMBL5346938, “Bis-chalcones: A review of synthetic methodologies and anti-inflammatory effects” (Eur J Med Chem, 2023).

The target of assay [1] is T1, Seed linoleate 13S-lipoxygenase-1 (Glycine max) (UniProt P08170).
T1 sequence (whole entry): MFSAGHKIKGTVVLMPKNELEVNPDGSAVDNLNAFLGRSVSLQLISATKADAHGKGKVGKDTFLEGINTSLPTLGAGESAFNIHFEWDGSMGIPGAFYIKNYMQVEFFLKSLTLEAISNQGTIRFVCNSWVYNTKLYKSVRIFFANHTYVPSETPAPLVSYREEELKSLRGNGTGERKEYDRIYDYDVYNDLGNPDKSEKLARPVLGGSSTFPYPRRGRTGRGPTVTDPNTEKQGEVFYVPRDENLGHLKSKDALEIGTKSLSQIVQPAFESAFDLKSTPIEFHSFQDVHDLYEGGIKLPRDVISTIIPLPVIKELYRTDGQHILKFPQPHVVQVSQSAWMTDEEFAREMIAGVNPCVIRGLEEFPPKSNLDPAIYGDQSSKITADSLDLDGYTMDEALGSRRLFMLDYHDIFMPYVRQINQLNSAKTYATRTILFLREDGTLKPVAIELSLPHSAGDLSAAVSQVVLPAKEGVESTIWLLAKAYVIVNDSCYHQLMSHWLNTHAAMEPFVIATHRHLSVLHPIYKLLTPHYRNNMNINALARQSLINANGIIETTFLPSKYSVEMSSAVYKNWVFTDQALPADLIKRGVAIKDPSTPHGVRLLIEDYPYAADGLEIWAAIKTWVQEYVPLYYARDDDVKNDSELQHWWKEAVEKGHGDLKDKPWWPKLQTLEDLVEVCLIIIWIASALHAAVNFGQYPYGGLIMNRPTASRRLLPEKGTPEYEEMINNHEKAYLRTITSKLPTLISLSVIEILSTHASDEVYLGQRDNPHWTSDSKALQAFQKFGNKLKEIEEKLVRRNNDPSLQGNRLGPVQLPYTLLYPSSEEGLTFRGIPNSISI
Put plainly: Inhibition of soybean LOX-1 using linoleic acid as substrate at 100 uM relative to control.

The target of assay [2] is T2, Seed linoleate 13S-lipoxygenase-1 (Glycine max, UniProt P08170).
T2 sequence (P08170 whole entry): T1 sequence (whole entry)
The experiment in a line: Inhibition of soybean LOX-1 using linoleic acid as substrate.

Assay [3] concerns Rattus norvegicus. Put plainly: Anti-inflammatory activity against Carrageenan-induced paw edema in rat assessed as reduction in edema measured after 6 hrs relative to control. The class given is functional. Set-up: concentration or dose not given beside the values. Background: In the carrageenan paw model, swelling and tenderness develop within hours.
For assay [4], the system named is Rattus norvegicus. Put plainly: Anti-inflammatory activity against carrageenan-induced paw edema in Sprague-Dawley rat assessed as inhibition of paw edema at 10 mg/kg, ip measured after 3 hrs relative to control. Set-up: scale not given: the % may be the effect or the level left. The class given is functional.
Assay [5] relates to Rattus norvegicus. Put plainly: Anti-inflammatory activity against carrageenan-induced paw edema in Sprague-Dawley rat assessed as inhibition of paw edema at 10 mg/kg, ip measured after 6 hrs relative to control. The format is functional. Set-up: scale not given: the % may be the effect or the level left.
For assay [6], the system named is Rattus norvegicus. The experiment in a line: Anti-inflammatory activity against carrageenan-induced paw edema in Sprague-Dawley rat assessed as reduction in edema measured after 3 hrs relative to indomethacin. The class given is functional. Set-up: concentration or dose not given beside the values.
The subject of assay [7] is Rattus norvegicus. The experiment in a line: Anti-inflammatory activity against carrageenan-induced paw edema in Sprague-Dawley rat assessed as reduction in edema measured after 6 hrs relative to indomethacin. The format is functional. The arrangement: concentration or dose not given beside the values.
Assay [8] has as its target T3, Prostaglandin G/H synthase 2 (Homo sapiens, UniProt P35354).
T3 sequence (P35354 whole entry): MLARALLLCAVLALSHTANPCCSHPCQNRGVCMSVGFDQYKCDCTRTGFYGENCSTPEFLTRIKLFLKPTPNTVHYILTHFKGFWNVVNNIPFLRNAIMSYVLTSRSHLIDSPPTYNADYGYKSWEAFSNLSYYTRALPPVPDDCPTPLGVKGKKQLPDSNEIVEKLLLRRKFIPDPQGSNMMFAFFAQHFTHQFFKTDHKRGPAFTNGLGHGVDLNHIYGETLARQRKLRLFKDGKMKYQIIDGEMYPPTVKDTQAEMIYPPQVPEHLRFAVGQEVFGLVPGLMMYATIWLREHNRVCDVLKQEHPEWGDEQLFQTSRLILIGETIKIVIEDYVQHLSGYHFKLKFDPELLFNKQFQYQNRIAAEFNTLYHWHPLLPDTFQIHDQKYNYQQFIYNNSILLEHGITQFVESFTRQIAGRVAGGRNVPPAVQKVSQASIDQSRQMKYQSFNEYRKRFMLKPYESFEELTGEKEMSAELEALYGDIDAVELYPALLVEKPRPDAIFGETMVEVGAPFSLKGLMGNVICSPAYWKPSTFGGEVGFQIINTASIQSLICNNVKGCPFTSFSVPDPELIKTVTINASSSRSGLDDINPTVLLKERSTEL
Put plainly: Inhibition of COX-2 (unknown origin).

In assay [9] the target is COX-1/COX-2 (Homo sapiens) (UniProt P35354+P23219). The experiment in a line: Selectivity index, ratio of IC50 for COX-1 (unknown origin) to IC50 for COX-2 (unknown origin). The class given is protein assay.
Sequence of COX-1/COX-2 (Homo sapiens) (P23219 whole entry, looked up, one chain of several): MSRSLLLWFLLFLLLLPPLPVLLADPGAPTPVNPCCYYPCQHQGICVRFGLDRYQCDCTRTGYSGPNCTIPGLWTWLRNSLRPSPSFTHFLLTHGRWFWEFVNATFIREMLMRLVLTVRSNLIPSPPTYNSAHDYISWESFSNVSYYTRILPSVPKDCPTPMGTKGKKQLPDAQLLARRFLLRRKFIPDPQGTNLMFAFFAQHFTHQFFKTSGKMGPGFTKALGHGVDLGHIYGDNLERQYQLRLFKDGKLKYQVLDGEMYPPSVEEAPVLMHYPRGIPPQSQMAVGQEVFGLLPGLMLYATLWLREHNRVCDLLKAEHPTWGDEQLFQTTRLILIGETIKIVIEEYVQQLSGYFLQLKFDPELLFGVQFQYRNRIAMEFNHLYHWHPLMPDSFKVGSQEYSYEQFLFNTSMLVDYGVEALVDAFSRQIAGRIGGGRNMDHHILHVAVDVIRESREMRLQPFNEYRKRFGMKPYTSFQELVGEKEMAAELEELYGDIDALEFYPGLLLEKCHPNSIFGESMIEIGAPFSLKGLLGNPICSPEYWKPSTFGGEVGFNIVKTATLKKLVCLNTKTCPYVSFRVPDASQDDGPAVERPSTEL

The term inhibition denotes the percentage by which the read-out fell short of the control. As usually defined, the IC50 is the concentration at which inhibition is half-maximal. The molecule `O=C(/C=C/c1cccc2ccccc12)c1ccc(OCCCOc2ccc(C(=O)/C=C/c3cccc4ccccc34)cc2)cc1` showed an inhibition in assay [1] of 100%. For the same molecule, the concentration for half-maximal inhibition (IC50) in assay [2] turned out to be 55000 nM.

The molecule `O=C(/C=C/c1ccc(OCc2ccc(Br)cc2)cc1)c1ccc(OCCCOc2ccc(C(=O)/C=C/c3ccc(OCc4ccc(Br)cc4)cc3)cc2)cc1` had an inhibition in assay [1] of 41%.

With `Cc1c(C(=O)/C=C/c2ccc(Cl)cc2Cl)c(C(=O)/C=C/c2ccc(Cl)cc2Cl)nn1-c1ccc(Br)cc1`, in assay [3], the Activity amounted to 9.26%.

`O=C(/C=C/C(Br)=C/c1ccccc1)c1ccc(OCCCOc2ccc(C(=O)/C=C/C(Br)=C/c3ccccc3)cc2)cc1` yielded an inhibition in [1] of 24.5%.

As for `COc1ccc(/C=C/C(=O)c2nn(-c3ccccc3)c(C)c2C(=O)/C=C/c2ccc(OC)cc2)cc1`, the Activity in assay [4] is 32.69%; in assay [5], 35.92%; in assay [6], 71.35%; in assay [7], 73.56%.

Consider `O=C(/C=C/C=C/c1ccc([N+](=O)[O-])cc1)c1ccc(OCCCOc2ccc(C(=O)/C=C/C=C/c3ccc([N+](=O)[O-])cc3)cc2)cc1`, for which, in [1], the inhibition is 95%.

In the case of `Cc1ccc(-n2nc(C(=O)/C=C/c3ccco3)c(C(=O)/C=C/c3ccco3)c2C)cc1`, the Activity in [4] amounted to 9.69%; in assay [5], 11.33%; in [6] it was 21.14%; in assay [7], 23.2%.

For the molecule `Cc1c(C(=O)/C=C/c2ccccc2)c(C(=O)/C=C/c2ccccc2)nn1-c1ccccc1`, the Activity in assay [4] was 32.58%; in [5], 38.9%; in [6], 77.66%; in assay [7], 79.67%.

`COc1ccc(/C=C/C(=O)c2nn(-c3ccc(Br)cc3)c(C)c2C(=O)/C=C/c2ccc(OC)cc2)cc1` gave an IC50 in [8] of 700 nM. The Ratio IC50 in [9] stood at 76.

For the molecule `Cc1c(C(=O)/C=C/c2ccc(Cl)cc2Cl)c(C(=O)/C=C/c2ccc(Cl)cc2Cl)nn1-c1ccc(F)cc1`, the Activity in assay [3] was 13.57%.

`CN(C)c1ccc(/C=C/C=C/C(=O)c2ccc(OCCCCOc3ccc(C(=O)/C=C/C=C/c4ccc(N(C)C)cc4)cc3)cc2)cc1` registered an inhibition in [1] of 27%.

For `Cc1ccc(-n2nc(C(=O)/C=C/c3ccc(Cl)cc3)c(C(=O)/C=C/c3ccc(Cl)cc3)c2C)cc1`, the Activity came out at 21.23% in assay [4], 25.92% in [5], 59.87% in assay [6] and 53.08% in [7].

In assay [1], `CN(C)c1ccc(/C=C/C=C/C(=O)c2ccc(OCCCCCCOc3ccc(C(=O)/C=C/C=C/c4ccc(N(C)C)cc4)cc3)cc2)cc1` returned an inhibition of 7%.

For `Cc1c(C(=O)/C=C/c2ccco2)c(C(=O)/C=C/c2ccco2)nn1-c1ccc(F)cc1`, the Activity in assay [3] was found to be 16.79%.

As to `Cc1c(C(=O)/C=C/c2ccc(Cl)cc2Cl)c(C(=O)/C=C/c2ccc(Cl)cc2Cl)nn1-c1ccccc1`, the Activity in assay [3] was found to be 12.86%.

In the case of `CN(C)c1ccc(/C=C/C=C/C(=O)c2ccc(OCCOc3ccc(C(=O)/C=C/C=C/c4ccc(N(C)C)cc4)cc3)cc2)cc1`, the inhibition in [1] stood at 77%.

For the molecule `CC(/C=C/C(=O)c1ccc(OCCCOc2ccc(C(=O)/C=C/C(C)=C/c3ccccc3)cc2)cc1)=C\c1ccccc1`, in assay [1], the inhibition amounted to 26.5%.

Turning to `CN(C)c1ccc(/C=C/C=C/C(=O)c2ccc(OCCCOc3ccc(C(=O)/C=C/C=C/c4ccc(N(C)C)cc4)cc3)cc2)cc1`, in assay [1], the inhibition came to 93%. For the same molecule, 56000 nM corresponded to half-maximal inhibition in assay [2] (IC50).

`CN(C)c1ccc(/C=C/C=C/C(=O)c2ccc(OCCCCCCCOc3ccc(C(=O)/C=C/C=C/c4ccc(N(C)C)cc4)cc3)cc2)cc1`: in assay [1], the inhibition is 65%.

As to `Cc1ccc(-n2nc(C(=O)/C=C/c3ccc(Cl)cc3Cl)c(C(=O)/C=C/c3ccc(Cl)cc3Cl)c2C)cc1`, in [3], the Activity was 10.71%.

In [1], `O=C(/C=C/c1ccco1)c1ccc(OCCCOc2ccc(C(=O)/C=C/c3ccco3)cc2)cc1` returned an inhibition of 57%.

As for `O=C(/C=C/c1c[nH]c2ccccc12)c1ccc(OCCCOc2ccc(C(=O)/C=C/c3c[nH]c4ccccc34)cc2)cc1`, the inhibition in [1] came out at 98%.

Take `Cc1c(C(=O)/C=C/c2ccco2)c(C(=O)/C=C/c2ccco2)nn1-c1ccccc1`: the Activity was determined as 28.15% in assay [4], 28.61% in assay [5], 61.45% in assay [6] and 58.6% in [7].

The molecule `COc1ccc(/C=C/C(=O)c2nn(-c3ccc(F)cc3)c(C)c2C(=O)/C=C/c2ccc(OC)cc2)cc1` came in with an IC50 in assay [8] of 320 nM. In [9], the Ratio IC50 is 312. Also, the Activity in assay [3] is given as 65.21%.

As for `O=C(/C=C/c1cccs1)c1ccc(OCCCOc2ccc(C(=O)/C=C/c3cccs3)cc2)cc1`, the inhibition in [1] is 32%.

For `Cc1c(C(=O)/C=C/c2ccco2)c(C(=O)/C=C/c2ccco2)nn1-c1ccc(Cl)cc1`, the IC50 in assay [8] came out at 1500 nM. Besides, the Ratio IC50 in assay [9] turned out to be 65.3. Further, in assay [3], the Activity was 27.86%.

`Cc1c(C(=O)/C=C/c2ccco2)c(C(=O)/C=C/c2ccco2)nn1-c1ccc(Br)cc1`: the Activity in assay [3] was 1.07%.

On to `Cc1c(C(=O)/C=C/c2ccc(Cl)cc2Cl)c(C(=O)/C=C/c2ccc(Cl)cc2Cl)nn1-c1ccc(Cl)cc1`, for which the Activity in assay [3] is 15.36%.

Consider `COc1ccc(/C=C/C(=O)c2nn(-c3ccc(C)cc3)c(C)c2C(=O)/C=C/c2ccc(OC)cc2)cc1`, for which the Activity was 27.43% in assay [4], 21.38% in assay [5], 59.87% in [6] and 43.78% in assay [7].

In the case of `Cc1c(C(=O)/C=C/c2ccc(Cl)cc2)c(C(=O)/C=C/c2ccc(Cl)cc2)nn1-c1ccccc1`, the Activity in assay [4] came to 24.37%; in assay [5], 28.31%; in [6], 53.2%; in assay [7], 57.97%.

In assay [1], `O=C(/C=C/C=C/c1ccccc1)c1ccc(OCCCOc2ccc(C(=O)/C=C/C=C/c3ccccc3)cc2)cc1` registered an inhibition of 41%.

With `COc1ccc(/C=C/C(=O)c2nn(-c3ccc(Cl)cc3)c(C)c2C(=O)/C=C/c2ccc(OC)cc2)cc1`, inhibition in [8] was half-maximal at 300 nM (IC50). The Ratio IC50 in assay [9] worked out at 333. Further, in assay [3], the Activity worked out at 66.21%.

Take `O=C(/C=C/c1ccccc1)c1ccc(OCCCOc2ccc(C(=O)/C=C/c3ccccc3)cc2)cc1`: the inhibition in assay [1] came to 76%.

For the molecule `Cc1ccc(/C=C/C(=O)c2ccc(OCCCOc3ccc(C(=O)/C=C/c4ccc(C)o4)cc3)cc2)o1`, in [1], the inhibition was found to be 52%.

For `O=C(/C=C/c1ccc(Oc2ccccc2)cc1)c1ccc(OCCCOc2ccc(C(=O)/C=C/c3ccc(Oc4ccccc4)cc3)cc2)cc1`, the inhibition in assay [1] turned out to be 100%. Moreover, the IC50 in assay [2] turned out to be 55000 nM.

In [1], `CN(C)c1ccc(/C=C/C=C/C(=O)c2ccc(OCCCCCOc3ccc(C(=O)/C=C/C=C/c4ccc(N(C)C)cc4)cc3)cc2)cc1` gave an inhibition of 23%.

`CN(C)c1ccc(/C=C/C=C/C(=O)c2ccc(OCCCCCCCCOc3ccc(C(=O)/C=C/C=C/c4ccc(N(C)C)cc4)cc3)cc2)cc1`: the inhibition in assay [1] was 12%.

Consider `Cc1ccc(-n2nc(C(=O)/C=C/c3ccccc3)c(C(=O)/C=C/c3ccccc3)c2C)cc1`, for which the Activity was 28.72% in assay [4], 30.16% in [5], 62.69% in [6] and 61.76% in [7].
